For data set [1], the system named is tubulin. Kind of data set: Inhibition of tubulin polymerization (turbidimetry). The class given is biochemical, bovine.
Data set [2] relates to tubulin. Kind of data set: Inhibition of [3H]colchicine binding to tubulin (DEAE-filter). The following applies: 1 μM tubulin, 5 μM [3H]colchicine, 5 μM inhibitor, 10 min, 37° C. Set-up: species or system bovine.
The test system of data set [3] is MLM melanoma. Kind of data set: MTT cytotoxicity assay, MLM. The following applies: for IC50: read-out: Cytotoxicity ED50, MLM. Background: Tetrazolium dyes change colour on reduction, which living cells bring about.
For data set [4], the system named is A-549 lung carcinoma. Kind of data set: MTT cytotoxicity assay, A-549. Particulars: for IC50: Homo sapiens, A549, […], read-out: Cytotoxicity ED50, A-549.
The test system of data set [5] is MCF-7 breast carcinoma. Kind of data set: MTT cytotoxicity assay, MCF-7. Particulars: for IC50: Homo sapiens, MCF7, […], read-out: Cytotoxicity ED50, MCF-7.
Data set [6] has as its system HT-29 colon adenocarcinoma. Kind of data set: MTT cytotoxicity assay, HT-29. The following applies: for IC50: Homo sapiens, HT-29, […], read-out: Cytotoxicity ED50, HT-29.
Data set [7] deals with SKMEL-5 melanoma. Kind of data set: MTT cytotoxicity assay, SKMEL-5. The following applies: for IC50: Homo sapiens, SK-MEL-5, […], read-out: Cytotoxicity ED50, SKMEL-5.
Data set [8] has as its system five cancer cell cultures. Kind of data set: MTT cytotoxicity assay, five cancer cell cultures taken together. The following applies: for less cytotoxic than 8a / cytotoxicity reduced: relative to 8a; for cytotoxicity (in words): five cancer cell lines.
Data set [9] relates to DMS 273 small cell lung cancer. Kind of data set: Cytotoxicity, DMS 273. The following applies: read-out: cytotoxicity GI50, DMS 273; 50% growth inhibition; average of two determinations; 8640 min.
Where [10] appears, read: first series (Table VIII and text), 37° C., 20 min, read-out: Tubulin polymerization IC50 (±S.D.).
Where [11] appears, read: second series (Tables V-VII, IX), read-out: Inhibition of Tubulin Polymerization IC50 (±S.D.).

Structures can show the parent of a compound that is named as a salt. Where two headings read alike, the source gives them in different places.

Regarding `COc1cc([C@@H]2c3cc4c(cc3[C@H](O)[C@H]3COC(=O)[C@H]23)OCO4)cc(OC)c1OC` [Podophyllotoxin, reference compound], the IC50 in [1] (Table X footnote b, different glutamate preparation, read-out: tubulin polymerization IC50, standard agents) turned out to be […]; in [1] (setting [10]) it was […]. For the same compound, the “Colchicine binding % inhibition” value in data set [2] amounted to 88%.

With `CNC(=O)/C(=C/c1ccc(OC)cc1)c1cc(OC)c(OC)c(OC)c1` [compound 24c, (E)-N-Methyl-[3-(4-methoxyphenyl)-2-(3,4,5-trimethoxyphenyl)]-prop-2-enoamide], the IC50 is 35 µM in data set [1] (setting [11]); 9.3 µM in [3]; 0.024 µM in data set [4]; 0.05 µM in [5]; 0.026 µM in data set [6]; 0.024 µM in data set [7]. The IC50 in data set [8] (read-out: cytotoxicity ED50, A-549, MCF-7, HT-29, and SKMEL-5 cell cultures) was 0.0064 to 0.05 µM.

Take `COc1cc(/C=C/c2ccc(N(C)C)cc2)cc(OC)c1OC` [compound 6n, (E)-1-[4-(N,N-Dimethylamino)phenyl]-2-(3,4,5-trimethoxyphenyl)ethene]: the “inhibition of tubulin polymerization (in words)” value (“inhibition … (in words)” below) in data set [1] is recorded as “neither trans stilbene was able to significantly inhibit tubulin polymerization”. The IC50 in data set [1] (setting [10]) is greater than 50 µM; in data set [3], 0.0125 µM; in [4] it was 0.0061 µM; in [5], 0.082 µM; in data set [6], 0.0069 µM; in [7], 0.0046 µM. Further, the IC50 in data set [8] (read-out: cytotoxicity ED50, in at least three cell lines) was less than 1 µM.

In the case of `COc1cc(CNc2ccc(C(C)C)cc2)cc(OC)c1OC` [110f, 4-Isopropyl-N-(3,4,5-trimethoxybenzyl)aniline Hydrochloride], the IC50 in data set [1] (Table X, different glutamate preparation (1M monosodium glutamate and GTP), read-out: inhibn of tubulin polymn IC50 (±SD)) is greater than 40 µM. Also, the GI50 in data set [9] came out at 12.9 µM.

Consider `COc1ccc(C(=O)c2cc(OC)c(OC)c(OC)c2)cc1` [compound 27, 3,4,4',5-Tetramethoxybenzophenone], for which the IC50 was found to be 7.4 µM in data set [1] (setting [11]); 0.013 µM in data set [3]; 0.011 µM in [4]; 0.015 µM in [5]; 0.013 µM in [6]; 0.012 µM in data set [7]. Also, the “less cytotoxic than 8a / cytotoxicity reduced” value in data set [8] is recorded as “about 100 -fold”.

With `COc1ccc(/C=C\c2cc(OC)c(OC)c(OC)c2)cc1` [compound 5a, (Z)-1-(4-Methoxyphenyl)-2-(3,4,5-trimethoxyphenyl)ethene], the “inhibition … (in words)” value in data set [1] is “strong inhibitors of tubulin polymerization”. In addition, the IC50 in [1] (setting [10]) was 2.2 µM; in data set [1] (setting [11]), 2.5 µM; in [7] it was 0.00026 µM; in data set [8] (read-out: cytotoxicity ED50) it was less than 1 µM. Moreover, the entries for the “times less cytotoxic than combretastatin A-4 (1a)” value in data set [3] (MLM), in [4] (A-549) and in data set [7] (SKMEL-5) were roughly 7 times, “about 20 times” and roughly 30 times, respectively. Besides, the “times more cytotoxic than combretastatin A-4 (1a)” value in [5] (MCF-7) is “about 10 times”; in data set [6] (HT-29), “approximately 140 times”.

For `COc1ccc(C(C#N)Cc2cc(OC)c(OC)c(OC)c2)cc1` (centres unmarked) [compound 17i, 2-(4-Methoxyphenyl)-3-(3,4,5-trimethoxyphenyl)propanonitrile], the IC50 is greater than 40 µM in data set [1] (setting [11]); 21.1 µM in [3]; 11.5 µM in [4]; 14.3 µM in [5]; 9.4 µM in [6]; 6.4 µM in data set [7]. The “less cytotoxic than 8a / cytotoxicity reduced” value in [8] is given as 10,000 -fold.

Turning to `COc1ccc(NCc2cc(OC)cc(OC)c2)cc1` [compound 12d], the IC50 in data set [1] (setting [10]) is 29 µM; in data set [3], greater than 25 µM; in data set [4], 5.71 µM; in data set [5] it was 6.08 µM; in data set [6], 17.8 µM; in data set [7], 2.41 µM. For the same compound, in data set [2], the “Colchicine binding % inhibition” value is 39%.

Consider `CCN(CC)CCOc1ccc(CCc2cc(OC)c(OC)c(OC)c2)cc1` [17g], for which the IC50 was greater than 40 µM in [1] (setting [11]); greater than 25 µM in [3]; 6.8 µM in data set [4]; 4.3 µM in data set [5]; 5.2 µM in data set [6]; 8.5 µM in data set [7]. The “cytotoxicity (in words)” value in data set [8] was “decreased cytotoxicity”.

In the case of `COc1ccc(CC(C#N)c2cc(OC)c(OC)c(OC)c2)cc1` (centres unmarked) [compound 17h, 3-(4-Methoxyphenyl)-2-(3,4,5-trimethoxyphenyl)propanonitrile], the IC50 came to 11 µM in data set [1] (setting [11]); 1.6 µM in data set [3]; 0.0096 µM in data set [4]; 0.014 µM in data set [5]; 0.0075 µM in data set [6]; 0.0041 µM in data set [7]. The IC50 in data set [8] (read-out: cytotoxicity ED50, in at least four cell lines) is less than 1 µM.

As for `COC(=O)C(Cc1cc(OC)c(OC)c(OC)c1)c1ccc(OC)cc1` (centres unmarked) [compound 17j, Methyl 2-(4-methoxyphenyl)-3-(3,4,5-trimethoxyphenyl)n-proponate], the IC50 in data set [1] (setting [11]) was greater than 40 µM; in data set [3] it was greater than 25 µM; in data set [4], greater than 25 µM; in data set [5] it was greater than 25 µM; in [6], greater than 25 µM; in data set [7] it was greater than 25 µM. Moreover, in data set [8] (read-out: cytotoxicity ED50, five cancer cell lines), the IC50 is greater than 25 µM.

`CCCOc1ccc(CCc2cc(OC)c(OC)c(OC)c2)cc1` [17b, 1-(4-n-Propoxyphenyl)-2-(3,4,5-trimethoxyphenyl)ethane]: the IC50 in data set [1] (setting [11]) is greater than 40 µM; in [3], 15 µM; in [4] it was 7.2 µM; in data set [5] it was 3.9 µM; in [6] it was 6.4 µM; in data set [7] it was 6.7 µM. Further, the “cytotoxicity (in words)” value in [8] is reported as “decreased cytotoxicity”.

Take `CCNC(=O)/C(=C/c1ccc(OC)cc1)c1cc(OC)c(OC)c(OC)c1` [compound 24d, (E)-N-Ethyl-[3-(4-methoxyphenyl)-2-(3,4,5-trimethoxyphenyl)]-prop-2-enoamide]: the IC50 in [1] (setting [11]) is greater than 40 µM; in data set [3], greater than 25 µM; in data set [4] it was 3.4 µM; in [5], 3.7 µM; in [6], 1.8 µM; in data set [7], 7.05 µM. In addition, the “cytotoxicity (in words)” value in data set [8] is listed as “did not show considerable cytotoxicity”.

With `COc1ccc(/C=C\c2cc(OC)cc(OC)c2)cc1` [15i, (Z)-1-(3,5-Dimethoxyphenyl)-2-(4-methoxyphenyl)ethene], the IC50 came to 3.8 µM in data set [1] (setting [11]); 0.098 µM in data set [3]; 0.13 µM in [4]; 0.16 µM in data set [5]; 0.34 µM in data set [6]; 0.42 µM in [7]. Moreover, in data set [8] (read-out: cytotoxicity ED50), the IC50 was roughly 0.1 µM.

On to `COc1ccc(C(O)c2cc(OC)c(OC)c(OC)c2)cc1` (centres unmarked) [compound 28, 4-Methoxyphenyl-(3,4,5-trimethoxyphenyl)methanol], for which the IC50 in data set [1] (setting [11]) is greater than 40 µM; in [3] it was 16.8 µM; in data set [4], 1.5 µM; in data set [5], 1.9 µM; in data set [6], 1.2 µM; in [7], 1.5 µM. Moreover, the “cytotoxicity reduced relative to 27” value in [8] (28 relative to 27) is given as 100 times.

As to `COc1ccccc1/C=C\c1cc(OC)c(OC)c(OC)c1` [compound 5c, (Z)-1-(2-Methoxyphenyl)-2-(3,4,5-trimethoxyphenyl)ethene], the “inhibition … (in words)” value in [1] is “low activity”. The IC50 in data set [3] worked out at 8.6 µM; in [4] it was 1.1 µM; in data set [5] it was 1.3 µM; in data set [6] it was 0.87 µM; in data set [7] it was 1.2 µM. For the same compound, the “cytotoxicity (in words)” value in data set [8] is “decreased the activity drastically”.

For the compound `COc1cc(CCc2ccc(OCCN(C)C)cc2)cc(OC)c1OC` [17f], the IC50 in [1] (setting [11]) is greater than 40 µM; in data set [3], greater than 25 µM; in data set [4], greater than 25 µM; in data set [5] it was 10.3 µM; in data set [6] it was 9.8 µM; in [7], 11.4 µM. Further, the “cytotoxicity (in words)” value in data set [8] is given as “decreased cytotoxicity”.

For the compound `CCN(CC)CCOC(=O)/C(=C/c1ccc(OC)cc1)c1cc(OC)c(OC)c(OC)c1` [24e, (E)-(2-N,N-Diethylamino)ethyl-3-(4-methoxyphenyl)-2-(3,4,5-trimethoxyphenyl)-prop-2-enoate], the IC50 in data set [1] (setting [11]) is greater than 40 µM; in data set [3] it was greater than 25 µM; in data set [4] it was 1.8 µM; in data set [5], 2.1 µM; in data set [6], 2.8 µM; in data set [7], 2.7 µM. Further, the “cytotoxicity (in words)” value in data set [8] was “did not show considerable cytotoxicity”.

Consider `COc1cc(CCc2ccc(SC)cc2)cc(OC)c1OC` [17c, 1-(4-Methylthiophenyl)-2-(3,4,5-trimethoxyphenyl)ethane], for which the IC50 in [1] (setting [11]) was greater than 40 µM; in [3], 1.3 µM; in [4] it was 0.15 µM; in [5] it was 0.2 µM; in data set [6] it was 0.4 µM; in data set [7], 0.24 µM. In addition, in [8], the “cytotoxicity (in words)” value is “decreased cytotoxicity”.

By GI50 is commonly meant the concentration that inhibits growth by half.

The values are drawn from patent publication US5430062A, “Stilbene derivatives as anticancer agents” (priority 1993, dated 1995).
